The source of these data is patent US20220257552A1, “METHODS OF PRESCREENING AND TREATING BREAST CANCERS WITH SELECTIVE ANDROGEN RECEPTOR MODULATORS” (priority 2021, published 2022).

Holding throughout (format): cell-based
One assay concerns HCI-13 tumor fragments. Nature of the assay: HCI-13 ex vivo sponge culture, real time PCR. As to conditions: for reversal of pS2 gene expression inhibited by Formula IX: 100 nM PMA or 100 ng/mL EGF before 1 μM Formula IX. How it is done:
HCI-13 tumors grown in female mice were allowed to reach 500-1000 mm^3 before the animals were sacrificed and the tumors were excised to be used for sponge culture. Patient specimens frozen in liquid nitrogen in freezing medium were used for sponge culture. […] Tumors were sliced into small pieces (˜1 mm^3) and incubated on pre-soaked gelatin sponges (5 fragments/sponge) in 12 well plates containing 1.5 mL medium (MEM+10% FBS+2 mM L-glutamine+10 μg/mL insulin+10 μg/mL hydrocortisone+penicillin:streptomycin). The cultures were performed in triplicates for HCI-13 and singly for patient specimens. Pooled samples (n=5/sponge) from each sponge constituted one sample. Tissues were harvested after 3 days of treatment, RNA extracted, and expression of various genes measured. Although the same procedure was adopted for specimens obtained from breast cancer patients, the specimens were cultured singly (n=5/sponge=one sample) and not in triplicates as performed for HCI-13.

The test system of another assay is MDA-MB-231-AR cells. Put plainly: Morphology of MDA-MB-231-AR cells. As to conditions: 3 days. As for the experimental part:
MDA-MB-231 cells were stably transfected with AR using lentivirus. […] Live cells were visualized using a light-microscope and photographed. The cells were imaged at the same magnification and under the same microscopic conditions.
MDA-MB-231 cells were stably transfected with AR using lentivirus and were treated with vehicle or AR agonists at the indicated concentrations. At the end of 3 days of incubation, the cells were imaged under a microscope (40×).

Assay [1] concerns MDA-MB-231 triple negative breast cancer cells. Nature of the assay: SRB cell viability, MDA-MB-231 cells infected with AR adenovirus. How it is done: (§1) The SRB assay was used to determine cell number during cytotoxocity experiments. The following protocol was used: • 1. Cells were detached with 0.25% trypsin. • 2. Experimental cultures were cultured in 96-well microtiter plates (200 μL growth medium per well; 1,000-200,000 cells per well). • 3. Cultures were fixed with 50 μL 50% TCA (4° C.). (see cell fixation protocol for details). • 4. Fixed cells were stained with 50 μL 0.4% (wt/vol) SRB in 1% acetic acid for 10 minutes. • 5. SRB was removed and the cultures were quickly* rinsed 5 times with 1% acetic acid to remove unbound dye.** • 6. Cultures were air-dried overnight until there was no visible moisture. • 7. The cellular protein-bound SRB was dissolved with 200 μL unbuffered Tris base (10 mM, pH 10.5) for 30 minutes on a rocking platform shaker. • 8. Absorbance was read at 540 nm. * quickly performing rinsing process was to prevent desorption of protein-bound SRB ** completely removed residual wash solution by sharply flicking plates over sink.
The following protocol was used for fixing cells: • a. 50 μL of 50% TCA (4° C.) was gently layered on the top of growth medium in each well to make a final TCA concentration of 10%. • b. Cultures were incubated at 4° C. for 1 hour. • c. Cultures were washed 5 times with tap water to remove TCA, growth medium, low-molecular-weight metabolites, and serum protein. • d. Plates were air-dried until there was no visible moisture.
Cells were treated in charcoal stripped FBS (FIGS. 4A, 4C, 4E, 4G, 4I, 4K, 4M and 4O) or full serum (FIGS. 4B, 4D, 4F, 4H, 4J, 4L, 4N and 4P) for 3 days, fixed and stained with […] (SRB) to measure cell viability. Anti-proliferative IC50 values were calculated in breast cancer cells and compared to transactivation values, i.e., EC50 (agonists) and IC50 (antagonists) values, generated in HEK-293 cells.

Assay [2] concerns HCC-38 triple negative breast cancer cells. Put plainly: SRB cell viability, HCC-38 cells infected with AR adenovirus. As to conditions: 3 days. How it is done:
as §1
The following protocol was used for fixing cells: • a. 50 μL of 50% TCA (4° C.) was gently layered on the top of growth medium in each well to make a final TCA concentration of 10%. • b. Cultures were incubated at 4° C. for 1 hour. • c. Cultures were washed 5 times with tap water to remove TCA, growth medium, low-molecular-weight metabolites, and serum protein. • d. […]

The next assay deals with T1, PR (Rattus norvegicus, UniProt Q63449).
T1 construct: expressed in transfected cells
T1 sequence (Q63449 1-923): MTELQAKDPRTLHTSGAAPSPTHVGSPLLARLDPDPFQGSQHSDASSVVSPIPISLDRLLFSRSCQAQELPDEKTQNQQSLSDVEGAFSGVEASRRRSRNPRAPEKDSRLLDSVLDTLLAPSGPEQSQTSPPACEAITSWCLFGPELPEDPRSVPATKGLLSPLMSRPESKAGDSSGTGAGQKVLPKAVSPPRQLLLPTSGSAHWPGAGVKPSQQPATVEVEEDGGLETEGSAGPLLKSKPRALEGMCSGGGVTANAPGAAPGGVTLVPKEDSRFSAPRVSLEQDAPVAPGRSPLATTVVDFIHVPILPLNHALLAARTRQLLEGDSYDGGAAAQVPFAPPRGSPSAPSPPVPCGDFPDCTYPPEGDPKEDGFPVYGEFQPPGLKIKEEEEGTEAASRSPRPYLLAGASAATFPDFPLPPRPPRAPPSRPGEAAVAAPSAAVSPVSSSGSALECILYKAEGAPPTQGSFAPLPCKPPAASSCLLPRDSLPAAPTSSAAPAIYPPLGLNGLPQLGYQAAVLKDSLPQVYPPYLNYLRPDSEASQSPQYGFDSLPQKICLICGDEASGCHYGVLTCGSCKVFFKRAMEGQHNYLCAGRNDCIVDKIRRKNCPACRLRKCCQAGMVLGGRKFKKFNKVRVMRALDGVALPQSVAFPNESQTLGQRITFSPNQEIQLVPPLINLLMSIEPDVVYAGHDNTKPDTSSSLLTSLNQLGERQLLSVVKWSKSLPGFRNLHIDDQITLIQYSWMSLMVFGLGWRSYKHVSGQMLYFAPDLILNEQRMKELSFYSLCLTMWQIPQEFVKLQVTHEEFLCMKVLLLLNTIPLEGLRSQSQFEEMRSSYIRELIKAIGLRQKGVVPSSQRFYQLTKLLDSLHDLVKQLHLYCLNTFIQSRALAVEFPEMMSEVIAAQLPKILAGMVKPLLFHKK
Put plainly: PR transactivation in HEK-293 cells. As for the experimental part:
(§2) Rat GR, MR, PR, ER-α and ER-β were individually cloned into a pCR3.1 vector backbone. Sequencing was performed to verify the absence of any mutations. HEK-293 cells were plated at 90,000 cells per well of a 24 well plate in Dulbecco's Minimal Essential Media supplemented with 5% charcoal-stripped FBS. […] Luciferase assays were performed 48 h after transfection. Transcriptional activation values are represented as firefly luciferase normalized to renilla luciferase.

For a further assay, the target named is T2, MR (Rattus norvegicus, UniProt P22199).
T2 construct: expressed in transfected cells
T2 sequence (P22199 1-981): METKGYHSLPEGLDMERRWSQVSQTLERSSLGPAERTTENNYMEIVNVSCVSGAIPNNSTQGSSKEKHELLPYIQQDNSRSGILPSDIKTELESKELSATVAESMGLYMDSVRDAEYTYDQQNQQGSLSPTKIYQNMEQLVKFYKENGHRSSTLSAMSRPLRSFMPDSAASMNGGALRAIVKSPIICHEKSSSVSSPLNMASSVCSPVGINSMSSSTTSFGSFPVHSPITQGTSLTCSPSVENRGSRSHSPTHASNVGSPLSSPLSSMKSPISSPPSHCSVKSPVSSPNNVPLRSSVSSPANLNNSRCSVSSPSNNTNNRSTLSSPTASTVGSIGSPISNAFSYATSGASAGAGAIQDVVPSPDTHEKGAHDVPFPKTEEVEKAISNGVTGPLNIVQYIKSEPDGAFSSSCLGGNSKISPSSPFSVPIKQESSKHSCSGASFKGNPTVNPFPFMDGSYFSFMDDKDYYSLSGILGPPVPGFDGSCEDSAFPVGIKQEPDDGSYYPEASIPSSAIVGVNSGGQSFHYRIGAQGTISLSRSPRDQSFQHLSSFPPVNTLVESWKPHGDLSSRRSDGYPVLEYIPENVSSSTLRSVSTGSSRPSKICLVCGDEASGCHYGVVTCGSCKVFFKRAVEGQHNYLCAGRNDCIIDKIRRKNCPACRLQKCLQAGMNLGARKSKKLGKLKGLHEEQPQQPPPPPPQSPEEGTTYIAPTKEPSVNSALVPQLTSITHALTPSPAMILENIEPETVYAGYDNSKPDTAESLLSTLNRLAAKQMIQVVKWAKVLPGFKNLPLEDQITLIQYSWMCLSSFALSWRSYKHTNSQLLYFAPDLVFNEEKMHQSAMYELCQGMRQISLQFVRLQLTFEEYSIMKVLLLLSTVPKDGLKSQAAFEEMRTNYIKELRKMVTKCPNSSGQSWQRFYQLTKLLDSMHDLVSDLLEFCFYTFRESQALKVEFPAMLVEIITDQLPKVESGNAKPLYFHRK
Put plainly: MR transactivation in HEK-293 cells. Particulars: 1 nM. As for the experimental part: as §2

For `C[C@]12CCC(=O)C[C@@H]1CC[C@@H]1[C@@H]2CC[C@]2(C)[C@@H](O)CC[C@@H]12` [DHT, 5α-dihydrotestosterone, reference compound], the “inhibition of ER-induced pS2 and PR gene expression” value in the assay with HCI-13 tumor fragments (10 nM DHT, 1 μM Formula IX, 100 nM fulvestrant, 3 days) was “effective”. In the assay on HCI-13 tumor fragments (3 days), the “AR-target gene FKBP5 expression” value is reported as “induced” and the MKI67 expression result is “inhibited”. Moreover, in the assay with MDA-MB-231-AR cells, the cell morphology entry is “altered the morphology into a more anchored phenotype”. Also, the “growth inhibitory effects in the presence of bicalutamide” value in assay [1] (AR-positive cells, 10 μM bicalutamide) is “weakened growth inhibitory effects”. Moreover, the cell growth entry in assay [1] (cells with AR, 3 days, SRB) was “inhibited”. Further, the cell growth result in assay [2] is reported as “inhibited”.
Consider `CCCCCCCCCCCCCC(=O)O[C@@H]1[C@@H](C)[C@@]2(O)[C@@H](C=C(CO)C[C@]3(O)C(=O)C(C)=C[C@@H]23)[C@@H]2C(C)(C)[C@]12OC(C)=O` [PMA, phorbol 12-myristate 13-acetate], for which the “reversal of pS2 gene expression inhibited by Formula IX” value with HCI-13 tumor fragments was “completely reversed”.
On to `CC(=O)[C@H]1CC[C@H]2[C@@H]3CCC4=CC(=O)CC[C@]4(C)[C@H]3CC[C@]12C` [Progesterone, progesterone, reference compound], for which, at PR (1 nM), the PR activation was determined as 23 folds.
A word on the IC50: it is the concentration needed to halve the response being measured. A higher IC50 goes with weaker potency in that assay. On to `C[C@@](O)(COc1ccc(C#N)cc1)C(=O)Nc1ccc(C#N)c(C(F)(F)F)c1` [R-enantiomer of Formula IX, (R)—N-(4-cyano-3-(trifluoromethyl)phenyl)-3-(4-cyanophenoxy)-2-hydroxy-2-methylpropanamide], for which, at PR, the IC50 was 1690 nM.
On the same count and under the same terms, as for `CC#C[C@]1(O)CC[C@H]2[C@@H]3CCC4=CC(=O)CCC4=C3[C@@H](c3ccc(N(C)C)cc3)C[C@@]21C` [RU486, reference compound], the figure is 0.048 nM.
`C[C@]12CCC(=O)C=C1CC[C@@H]1[C@@H]2[C@@H](O)C[C@]2(C=O)[C@@H](C(=O)CO)CC[C@@H]12` [aldosterone, reference compound]: the “MR activity, induction” value at MR is on record as 60 fold.
As for EGF: epidermal growth factor, in the assay on HCI-13 tumor fragments, the “reversal of pS2 gene expression inhibited by Formula IX” value is on record as “only marginally reversed”.
